Results from patent publication US20120149708A1, “MODULATORS OF VIRAL TRANSCRIPTION, AND METHODS AND COMPOSITIONS THEREWITH” (George Mason University, priority 2010, published 2012).

Assays:
HIV-1 = details: T-cells, monocytes, and peripheral blood mononuclear cells; cited from earlier work
HIV-1 transcription = HIV-1 transcription inhibition in T-cells and monocytes; format: cell-based; details: T-cells versus monocytes
CEM cells (uninfected) = test: Cell viability by trypan blue exclusion, 48 hours; format: cell-based; details: 50 nM, 48 hrs
Description: (§1) TZM-bl cell lines were grown in Dulbecco's modified Eagle's medium supplemented with fetal bovine serum (FBS) (10%, v/v), 2 mM L-glutamine, and antibiotics (penicillin 100 U/ml, streptomycin […]) (cDMEM). HCT116 WT and HCT116 Dicer−/−cell lines were grown in McCoy's medium supplemented with FBS (10%, v/v), 2mM L-glutamine, and antibiotics (penicillin 100 U/ml, streptomycin […]). CEM, ACH2, Jurkat and U937 cells were grown in RPMI 1640 supplemented with FBS, L-glutamine, and antibiotics (penicillin 100 U/ml, streptomycin […]). All cell lines were maintained at 37° C. in 5% (v/v) CO2.
(§2) ACH2 cells are infected with HIV-1; TZM-bl cells contain a stably-integrated HIV-1 LTR-Luciferase reporter; CEM, Jurkat, and U937 cells are uninfected. Transfections were carried out using Attractene (Qiagen) lipid reagent. Cells were cultured to confluence and pelleted at 4° C. for 15 min at 3,000 rpm. The cell pellets were washed twice with 25 ml of phosphate-buffered saline (PBS) with Ca2+ and Mg2+ (Quality Biological) and centrifuged once more. Cell pellets were resuspended in lysis buffer (50 mM Tris-HCl, pH 7.5, 120 mM NaCl, 5 mM EDTA, 0.5%, v/v, NP-40, 50 mM NaF, 0.2 mM Na3VO4, 1 mM DTT, one complete protease cocktail tablet/50 ml (Roche) and incubated on ice for 20 min, with gentle vortexing every 5 min. Cell lysates were transferred to eppendorf tubes and were centrifuged at 10,000 rpm for 10 min. Supernatants were transferred to a fresh tube where protein concentrations were determined using Bio-Rad protein assay (Bio-Rad, Hercules, Calif.).
(§3) In brief, the inhibition studies were carried out as follows. HIV-1 infected cells ACH2, J1.1, OM10.1, U1 and uninfected CEM, Jurkat T-cells, and U937 were cultured in media. The appropriate inhibitor was added at a concentration of 10 μM. Cells were treated for 48 hours and cell viability was determined using trypan blue exclusion method. Results of such a screen for 19 inhibitors is shown in Table 1 where percent dead cells are indicated each drug tested.
(§4) Again HIV-1 infected and uninfected cells were treated with eighteen Formula I compounds at a drug concentration of 50 nm. Forty-eight hours after treatment, cytotoxicity was determined by trypan blue dye exclusion. Percent inhibition was calculated after obtaining the cell density for each well of the tissue culture plate at the end of 48 hrs.

U937 cells (uninfected) = test: Cell viability by trypan blue exclusion, 48 hours; format: cell-based; details: Homo sapiens, U-937, 50 nM, 48 hrs, read-out: Inhibition Percentage U937
Description: as §1, §2, §3, §4

[1] = system: HIV-1 infected and uninfected cells; test: Classification of inhibitors by effect on viability of infected versus uninfected cells; format: cell-based; details: 50 nM; high, moderate or poor
Description: The inhibitors were classified into three categories: high, moderate or poor, according to their effect on cellular viability in both HIV-1 infected and uninfected cells. Among the compounds tested in this study, CR8, a purine analog bearing a 2-pyridyl group para to the phenyl ring position 6 of the purine was the most promising drug candidate that killed HIV-1 infected cells, while having little or no effect on the death of uninfected cells.

[2] = system: J1.1 cells (HIV-1 infected); test: Cell viability by trypan blue exclusion, 48 hours; format: cell-based; details: 50 nM, 48 hrs, HIV-1 infected
Description: as §3, §4

[3] = system: U1 cells (HIV-1 infected); test: Cell viability by trypan blue exclusion, 48 hours; format: cell-based; details: 50 nM, 48 hrs, HIV-1 infected
Description: as §3, §4

[4] = system: OM10.1 cells (HIV-1 infected); test: Cell viability by trypan blue exclusion, 48 hours; format: cell-based; details: Human immunodeficiency virus 1; 50 nM, 48 hrs, HIV-1 infected; read-out: Inhibition Percentage OM10.1
Description: as §3, §4

[5] = system: infected ACH2, J1.1, OM10.1, U1 cells; test: MTT assay, infected cells; format: cell-based; details: 50 nm and 10 μM
Description: (§5) FIGS. 1 and 2 show screening results of CR8 derivatives on Tat-dependent transcription HIV-1 LTR. […] TZM-bl cells were transfected with 1 ug of Tat and treated the next day with DMSO, or the indicated CR8 derivative compounds at 50 nm. 48 hrs-post drug treatment, luciferase activity of the firefly luciferase was measured with the BrightGlo Luciferase Assay and luminescence was read from a 96 well plate on an EG&G Berthold luminometer. Assays were performed in triplicate, average and standard deviations are shown.
(§6) Quantitative MTT assays were performed (FIG. 2), to further validate the cell growth inhibitory activity of certain Formula I compounds. In this study, cultured, infected ACH2, J1.1, OM10.1, U1 and uninfected CEM, Jurkat T-cells, and U937 cells were brought in contact with Formula I compounds CR8, MRT-033, and BJFP1154 (CR8#13). Cell growth inhibition study was performed at two different concentrations of the inventive compounds, a low concentration of 50 nm, and high concentration of 10 μM.

[6] = system: Jurkat T-cells (uninfected); test: Cell viability by trypan blue exclusion, 48 hours; format: cell-based; details: Homo sapiens, Jurkat, 50 nM, 48 hrs, read-out: Inhibition Percentage Jurkat
Description: as §1, with “CO2. […]” for “CO2.”
as §3, §4

[7] = system: ACH2 cells (HIV-1 infected); test: Cell viability by trypan blue exclusion, 48 hours; format: cell-based; details: Human immunodeficiency virus 1, ACH-2, 48 h, read-out: Inhibition Percentage ACH2, 50 nM, 48 hrs, HIV-1 infected
Description: as §1, with “CO2. […]” for “CO2.”
as §3, §4

[8] = system: uninfected CEM, Jurkat T-cells, and U937 cells; test: MTT assay, uninfected cells; format: cell-based; details: 50 nm and 10 μM
Description: as §5, §6

CC[C@@H](CO)Nc1nc(NCc2ccc(-c3ccccn3)cc2)c2ncn(C(C)C)c2n1 [Cyc202]
inhibition of HIV-1 (IC50) (HIV-1): low IC50
inhibition of transcription (HIV-1 transcription): effectively inhibited transcription in T-cells but not in monocytes

CC[C@H](CO)Nc1nc(NCc2ccc(-c3ccccn3)cc2)n2ncc(C(C)C)c2n1.O=C(O)/C=C/C(=O)O [MRT-033, R-2-(8-isopropyl-4-(4-(pyridine-2-yl)benzylamino)pyrazolo[1,5-α]-1,3,5-triazine-2-ylamino)butan-1-ol]
Inhibition Percentage CEM (CEM cells (uninfected)): + (~25%)
inhibition at 0.05 µM (U937 cells (uninfected)): 90%
Selectivity [1]: High
Inhibition Percentage J1.1 [2]: ++ (~50%)
Inhibition Percentage U1 [3]: ++ (~50%)
inhibition at 0.05 µM [4]: 75%
cell killing of infected cells (MTT) [5]: significant cell killing of infected cells over uninfected cells
inhibition at 0.05 µM [6]: 50%
inhibition at 0.05 µM [7]: 90%
cell inhibition of uninfected cells (MTT) [8]: some cell inhibition activity of uninfected cells
